Key:
Experiment in all cases: cells
[1] = tested on: NY; assay type: functional, cell-based, Homo sapiens; settings: Homo sapiens, NY
Description: SANGER: Inhibition of human NY cell growth in a cell viability assay.

[2] = tested on: MHH-NB-11; assay type: functional, cell-based, Homo sapiens; settings: Homo sapiens, MHH-NB-11;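 note: growth inhibition of human MHH-NB-11 cells, read out by a cell viability assay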
Description: SANGER: Inhibition of human MHH-NB-11 cell growth in a cell viability assay.

[3] = tested on: KMOE-2; assay type: functional, cell-based; settings: Homo sapiens;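 note: growth inhibition of human KMOE-2 cells, read out with a cell viability assay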
Description: SANGER: Inhibition of human KMOE-2 cell growth in a cell viability assay.

[4] = tested on: PANC-03-27; assay type: functional, cell-based, Homo sapiens; settings: Homo sapiens, PANC-03-27
Description: SANGER: Inhibition of human PANC-03-27 cell growth in a cell viability assay.

[5] = tested on: D-542MG; assay type: functional, cell-based, Homo sapiens; settings: Homo sapiens, D-542MG
Description: SANGER: Inhibition of human D-542MG cell growth in a cell viability assay.

[6] = tested on: VA-ES-BJ; assay type: functional, cell-based, Homo sapiens; settings: Homo sapiens, VA-ES-BJ;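 note: growth inhibition of the VA-ES-BJ cell line, read out by a cell viability assay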
Description: SANGER: Inhibition of human VA-ES-BJ cell growth in a cell viability assay.

[7] = tested on: 639-V; assay type: functional, cell-based, Homo sapiens; settings: Homo sapiens, 639-V;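 note: growth inhibition of 639-V cells, read out with a cell viability assay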
Description: SANGER: Inhibition of human 639-V cell growth in a cell viability assay.

[8] = tested on: NCI-H1623; assay type: functional, cell-based, Homo sapiens; settings: Homo sapiens, NCI-H1623;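 note: cell viability assay used as the read-out for growth inhibition of NCI-H1623 cells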
Description: SANGER: Inhibition of human NCI-H1623 cell growth in a cell viability assay.

[9] = tested on: SBC-1; assay type: functional, cell-based; settings: Homo sapiens;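 note: cell viability assay measuring growth inhibition of the SBC-1 cell line, IC50 being the concentration that halves growth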
Description: SANGER: Inhibition of human SBC-1 cell growth in a cell viability assay.

[10] = tested on: TE-9; assay type: functional, cell-based, Homo sapiens; settings: Homo sapiens, TE-9;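 note: cell growth inhibition, measured with a cell viability readout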
Description: SANGER: Inhibition of human TE-9 cell growth in a cell viability assay.

[11] = tested on: GI-ME-N; assay type: functional, cell-based, Homo sapiens; settings: Homo sapiens, GI-ME-N;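 note: growth inhibition of human GI-ME-N cells, read out with a cell viability assay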
Description: SANGER: Inhibition of human GI-ME-N cell growth in a cell viability assay.

[12] = tested on: T84; assay type: functional, cell-based, Homo sapiens; settings: Homo sapiens, T84;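 note: growth inhibition measured with a cell viability readout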
Description: SANGER: Inhibition of human T84 cell growth in a cell viability assay.

[13] = tested on: CAL-85-1; assay type: functional, cell-based; settings: Homo sapiens;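 note: growth inhibition of human CAL-85-1 cells, read out with a cell viability assay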
[14] = tested on: SNU-449; assay type: functional, cell-based, Homo sapiens; settings: Homo sapiens, SNU-449
Description: SANGER: Inhibition of human SNU-449 cell growth in a cell viability assay.

[15] = tested on: MZ7-mel; assay type: functional, cell-based, Homo sapiens; settings: Homo sapiens, MZ7-mel;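 note: growth inhibition of human MZ7-mel cells, measured by a cell viability assay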
[16] = tested on: KU-19-19; assay type: functional, cell-based, Homo sapiens; settings: Homo sapiens, KU-19-19
Description: SANGER: Inhibition of human KU-19-19 cell growth in a cell viability assay.

[17] = tested on: HCC1806; assay type: functional, cell-based, Homo sapiens; settings: Homo sapiens, HCC1806;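 note: growth inhibition of the cancer cell line, determined with a cell viability assay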
Description: SANGER: Inhibition of human HCC1806 cell growth in a cell viability assay.

[18] = tested on: D-502MG; assay type: functional, cell-based, Homo sapiens; settings: Homo sapiens, D-502MG
Description: SANGER: Inhibition of human D-502MG cell growth in a cell viability assay.

[19] = tested on: HT-1080; assay type: functional, cell-based, Homo sapiens; settings: Homo sapiens, HT-1080
Description: SANGER: Inhibition of human HT-1080 cell growth in a cell viability assay.

[20] = tested on: MEL-HO; assay type: functional, cell-based, Homo sapiens; settings: Homo sapiens, MEL-HO
Description: SANGER: Inhibition of human MEL-HO cell growth in a cell viability assay.

[21] = tested on: NCI-H1793; assay type: functional, cell-based, Homo sapiens; settings: Homo sapiens, NCI-H1793;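 note: cell growth inhibition, read out by a cell viability assay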
Description: SANGER: Inhibition of human NCI-H1793 cell growth in a cell viability assay.

[22] = tested on: RVH-421; assay type: functional, cell-based, Homo sapiens; settings: Homo sapiens, RVH-421
Description: SANGER: Inhibition of human RVH-421 cell growth in a cell viability assay.

[23] = tested on: JVM-3; assay type: functional, cell-based; settings: Homo sapiens;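 note: growth inhibition of human JVM-3 cells, read out with a cell viability assay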
Description: SANGER: Inhibition of human JVM-3 cell growth in a cell viability assay.

[24] = tested on: SK-HEP1; assay type: functional, cell-based, Homo sapiens, SK-HEP-1; settings: Homo sapiens, SK-HEP1;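 note: cell viability readout used to quantify reduction in proliferation of human SK-HEP-1 cells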
Description: SANGER: Inhibition of human SK-HEP-1 cell growth in a cell viability assay.

[25] = tested on: Ca9-22; assay type: functional, cell-based, Homo sapiens; settings: Homo sapiens, Ca9-22;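 note: growth inhibition of Ca9-22 cells, read out with a cell viability assay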
Description: SANGER: Inhibition of human Ca9-22 cell growth in a cell viability assay.

[26] = tested on: CWR22R; assay type: functional, cell-based, Homo sapiens; settings: Homo sapiens, 22Rv1;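 note: growth inhibition of 22Rv1 cells, read out with a cell viability assay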
Description: SANGER: Inhibition of human 22RV1 cell growth in a cell viability assay.

[27] = tested on: KS-1; assay type: functional, cell-based, Homo sapiens; settings: Homo sapiens, KS-1;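 note: growth inhibition of KS-1 cells, read out with a cell viability assay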
[28] = tested on: MOLT-16; assay type: functional, cell-based; settings: Homo sapiens;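 note: growth inhibition of human MOLT-16 cells, read out with a cell viability assay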
Description: SANGER: Inhibition of human MOLT-16 cell growth in a cell viability assay.

[29] = tested on: SN12C; assay type: functional, cell-based, Homo sapiens; settings: Homo sapiens, SN12C;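 note: growth inhibition of human SN12C cells, measured by a cell viability assay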
Description: SANGER: Inhibition of human SN12C cell growth in a cell viability assay.

[30] = tested on: SK-LMS-1; assay type: functional, cell-based, Homo sapiens; settings: Homo sapiens, SK-LMS-1;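 note: growth inhibition of human SK-LMS-1 cells, read out with a cell viability assay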
Description: SANGER: Inhibition of human SK-LMS-1 cell growth in a cell viability assay.

[31] = tested on: NCI-H358; assay type: functional, cell-based, Homo sapiens; settings: Homo sapiens, NCI-H358;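 note: growth inhibition of NCI-H358 human cells, read out with a cell viability assay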
Description: SANGER: Inhibition of human NCI-H358 cell growth in a cell viability assay.

[32] = tested on: SK-MEL3; assay type: functional, cell-based, Homo sapiens, SK-MEL-3; settings: Homo sapiens, SK-MEL3;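 note: growth inhibition of human SK-MEL-3 cells, read out with a cell viability assay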
Description: SANGER: Inhibition of human SK-MEL-3 cell growth in a cell viability assay.

[33] = tested on: KALS-1; assay type: functional, cell-based, Homo sapiens; settings: Homo sapiens, KALS-1;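 note: growth inhibition of KALS-1 cells, determined with a cell viability assay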
[34] = tested on: SW1990; assay type: functional, cell-based, Homo sapiens; settings: Homo sapiens, SW1990;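 note: cell growth inhibition determined with a viability assay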
Description: SANGER: Inhibition of human SW1990 cell growth in a cell viability assay.

[35] = tested on: NCI-H1437; assay type: functional, cell-based, Homo sapiens; settings: Homo sapiens, NCI-H1437;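 note: growth inhibition of human NCI-H1437 cells, read out by a cell viability assay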
Description: SANGER: Inhibition of human NCI-H1437 cell growth in a cell viability assay.

[36] = tested on: NCI-N87; assay type: functional, cell-based, Homo sapiens; settings: Homo sapiens, NCI-N87;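 note: growth inhibition of human NCI-N87 cells, read out with a cell viability assay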
Description: SANGER: Inhibition of human NCI-N87 cell growth in a cell viability assay.

[37] = tested on: KYSE-270; assay type: functional, cell-based, Homo sapiens; settings: Homo sapiens, KYSE-270;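 note: cell growth inhibition measured with a viability assay in the human KYSE-270 line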
Description: SANGER: Inhibition of human KYSE-270 cell growth in a cell viability assay.

[38] = tested on: UACC-257; assay type: functional, cell-based, Homo sapiens; settings: Homo sapiens, UACC-257
Description: SANGER: Inhibition of human UACC-257 cell growth in a cell viability assay.

[39] = tested on: MC-IXC; assay type: functional, cell-based, Homo sapiens; settings: Homo sapiens, MC-IXC;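 note: growth inhibition of MC-IXC cells, read out with a cell viability assay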
Description: SANGER: Inhibition of human MC-IXC cell growth in a cell viability assay.

[40] = tested on: CAKI-1; assay type: functional, cell-based, Homo sapiens; settings: Homo sapiens, CAKI-1;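 note: growth inhibition of CAKI-1 cells, measured by a cell viability assay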
Description: SANGER: Inhibition of human CAKI-1 cell growth in a cell viability assay.

[41] = tested on: MIA PaCa-2; assay type: functional, cell-based, Homo sapiens; settings: Homo sapiens, MIA PaCa-2;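 note: growth inhibition of MIA PaCa-2 cells, read out with a cell viability assay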
Description: SANGER: Inhibition of human MIA-PaCa-2 cell growth in a cell viability assay.

[42] = tested on: TGBC1TKB; assay type: functional, cell-based, Homo sapiens; settings: Homo sapiens, TGBC1TKB;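 note: growth inhibition of TGBC1TKB cells, read out by a cell viability assay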
Description: SANGER: Inhibition of human TGBC1TKB cell growth in a cell viability assay.

[43] = tested on: L-363; assay type: functional, cell-based; settings: Homo sapiens
Description: SANGER: Inhibition of human L-363 cell growth in a cell viability assay.

[44] = tested on: NCI-H292; assay type: functional, cell-based, Homo sapiens; settings: Homo sapiens, NCI-H292;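 note: growth inhibition of NCI-H292 cells, read out with a cell viability assay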
Description: SANGER: Inhibition of human NCI-H292 cell growth in a cell viability assay.

[45] = tested on: NCI-H69; assay type: functional, cell-based; settings: Homo sapiens;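 note: growth inhibition of the cell line, read out with a cell viability assay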
Description: SANGER: Inhibition of human NCI-H69 cell growth in a cell viability assay.

[46] = tested on: KP-N-YN; assay type: functional, cell-based; settings: Homo sapiens;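 note: growth inhibition of KP-N-YN cells, read out with a cell viability assay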
Description: SANGER: Inhibition of human KP-N-YN cell growth in a cell viability assay.

[47] = tested on: HCC1954; assay type: functional, cell-based, Homo sapiens; settings: Homo sapiens, HCC1954;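 note: growth inhibition of human HCC1954 cells, read out with a cell viability assay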
Description: SANGER: Inhibition of human HCC1954 cell growth in a cell viability assay.

[48] = tested on: OE33; assay type: functional, cell-based, Homo sapiens; settings: Homo sapiens, OE33;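 note: growth inhibition of human OE33 cells, measured by a cell viability assay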
Description: SANGER: Inhibition of human OE33 cell growth in a cell viability assay.

[49] = tested on: NCI-H1770; assay type: functional, cell-based; settings: Homo sapiens;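 note: growth inhibition of NCI-H1770 cells determined with a viability readout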
Description: SANGER: Inhibition of human NCI-H1770 cell growth in a cell viability assay.

[50] = tested on: CAPAN-1; assay type: functional, cell-based, Homo sapiens; settings: Homo sapiens, CAPAN-1;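 note: growth suppression of CAPAN-1 cells, read out by a cell viability assay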
Description: SANGER: Inhibition of human CAPAN-1 cell growth in a cell viability assay.

CN(C)C/C=C/C(=O)Nc1cc2c(Nc3ccc(F)c(Cl)c3)ncnc2cc1O[C@H]1CCOC1 [AFATINIB]
IC50 [1]: > 0.5 µM | IC50 [2]: > 0.5 µM | IC50 [3]: > 0.5 µM | IC50 [4]: > 0.5 µM | IC50 [5]: > 0.5 µM | IC50 [6]: > 0.5 µM | IC50 [7]: > 0.5 µM | IC50 [8]: 0.0802 µM | IC50 [9]: 0.19 µM | IC50 [10]: > 0.5 µM | IC50 [11]: > 0.5 µM | IC50 [12]: > 0.5 µM | IC50 [13]: > 0.5 µM | IC50 [14]: > 0.5 µM | IC50 [15]: > 0.5 µM | IC50 [16]: > 0.5 µM | IC50 [17]: > 0.5 µM | IC50 [18]: > 0.5 µM | IC50 [19]: > 0.5 µM | IC50 [20]: > 0.5 µM | IC50 [21]: > 0.5 µM | IC50 [22]: > 0.5 µM | IC50 [23]: > 0.5 µM | IC50 [24]: > 0.5 µM | IC50 [25]: 0.0835 µM | IC50 [26]: > 0.5 µM | IC50 [27]: > 0.5 µM | IC50 [28]: > 0.5 µM | IC50 [29]: > 0.5 µM | IC50 [30]: > 0.5 µM | IC50 [31]: > 0.5 µM | IC50 [32]: > 0.5 µM | IC50 [33]: > 0.5 µM | IC50 [34]: > 0.5 µM | IC50 [35]: > 0.5 µM | IC50 [36]: 0.0277 µM | IC50 [37]: > 0.5 µM | IC50 [38]: > 0.5 µM | IC50 [39]: > 0.5 µM | IC50 [40]: > 0.5 µM | IC50 [41]: > 0.5 µM | IC50 [42]: > 0.5 µM | IC50 [43]: > 0.5 µM | IC50 [44]: 0.0609 µM | IC50 [45]: 0.215 µM | IC50 [46]: > 0.5 µM | IC50 [47]: > 0.5 µM | IC50 [48]: > 0.5 µM | IC50 [49]: 0.103 µM | IC50 [50]: > 0.5 µM

Cn1cncc1[C@@](N)(c1ccc(Cl)cc1)c1ccc2c(c1)c(-c1cccc(Cl)c1)cc(=O)n2C [TIPIFARNIB]
IC50 [1]: 1.93 µM | IC50 [2]: > 16 µM | IC50 [3]: 5.18 µM | IC50 [4]: 5.73 µM | IC50 [5]: 1.41 µM | IC50 [6]: 2.36 µM | IC50 [7]: 1.19 µM | IC50 [8]: > 16 µM | IC50 [9]: > 16 µM | IC50 [10]: > 16 µM | IC50 [11]: > 16 µM | IC50 [12]: 0.546 µM | IC50 [13]: 1.25 µM | IC50 [14]: 0.623 µM | IC50 [15]: 0.722 µM | IC50 [16]: > 16 µM | IC50 [17]: 11.9 µM | IC50 [18]: > 16 µM | IC50 [19]: 10.3 µM | IC50 [20]: 2.24 µM | IC50 [21]: > 16 µM | IC50 [22]: > 16 µM | IC50 [23]: > 16 µM | IC50 [24]: 0.714 µM | IC50 [25]: 2.94 µM | IC50 [26]: 3.22 µM | IC50 [27]: 0.77 µM | IC50 [28]: 0.258 µM | IC50 [29]: 13.2 µM | IC50 [30]: 0.184 µM | IC50 [31]: 4.92 µM | IC50 [32]: 4.98 µM | IC50 [33]: > 16 µM | IC50 [34]: 12.4 µM | IC50 [35]: 8.21 µM | IC50 [36]: > 16 µM | IC50 [37]: 0.217 µM | IC50 [38]: > 16 µM | IC50 [39]: 2.76 µM | IC50 [40]: > 16 µM | IC50 [41]: 0.32 µM | IC50 [42]: > 16 µM | IC50 [43]: > 16 µM | IC50 [44]: 9.28 µM | IC50 [45]: > 16 µM | IC50 [46]: > 16 µM | IC50 [47]: 14.3 µM | IC50 [48]: 12.6 µM | IC50 [49]: > 16 µM | IC50 [50]: > 16 µM

O=C(NOCC1CC1)c1ccc(F)c(F)c1Nc1ccc(I)cc1Cl [CI-1040]
IC50 [1]: > 10 µM | IC50 [2]: 6.85 µM | IC50 [3]: 0.198 µM | IC50 [4]: 3.35 µM | IC50 [5]: > 10 µM | IC50 [6]: > 10 µM | IC50 [7]: 9.64 µM | IC50 [8]: > 10 µM | IC50 [9]: 8.87 µM | IC50 [10]: > 10 µM | IC50 [11]: > 10 µM | IC50 [12]: > 10 µM | IC50 [13]: > 10 µM | IC50 [14]: > 10 µM | IC50 [15]: 0.263 µM | IC50 [16]: 3.17 µM | IC50 [17]: > 10 µM | IC50 [18]: > 10 µM | IC50 [19]: 3.02 µM | IC50 [20]: 0.277 µM | IC50 [21]: > 10 µM | IC50 [22]: 0.972 µM | IC50 [23]: > 10 µM | IC50 [24]: 5.93 µM | IC50 [25]: 2.97 µM | IC50 [26]: > 10 µM | IC50 [27]: > 10 µM | IC50 [28]: > 10 µM | IC50 [29]: 3.25 µM | IC50 [30]: > 10 µM | IC50 [31]: 4.45 µM | IC50 [32]: 3.85 µM | IC50 [33]: > 10 µM | IC50 [34]: > 10 µM | IC50 [35]: 1.55 µM | IC50 [36]: > 10 µM | IC50 [37]: > 10 µM | IC50 [38]: 0.965 µM | IC50 [39]: > 10 µM | IC50 [40]: 8.57 µM | IC50 [41]: 3.01 µM | IC50 [42]: 7.89 µM | IC50 [43]: 2.74 µM | IC50 [44]: 1.87 µM | IC50 [45]: > 10 µM | IC50 [46]: > 10 µM | IC50 [47]: > 10 µM | IC50 [48]: > 10 µM | IC50 [49]: > 10 µM | IC50 [50]: > 10 µM
